Assays:
[1] = molecular target: T1, mu opiate receptor (Rattus norvegicus, UniProt P33535); assay: Inhibition of [3H]DAMGO binding to the mu opiate receptor in rat brain homogenates; design: Mean: unit not given beside the values; settings: 0.08 mg of compound per milliliter, 7 nM 3H-labeled DAMGO, rat brain membranes; for % Bound: [3H]DAMGO bound; for Mean: mean bound radioactivity of [3H]DAMGO; for Minus NSB*: mean minus non-specific binding; for % Inhibition: percent inhibition of DAMGO binding
T1 construct: from tissue; host or cells: rat brain membranes/homogenate
Procedure: The previously prepared [3,5,7]-1H-imidazo[1,5-a]-imidazol-2(3H)-one library of individual compounds was screened for the ability to inhibit the binding of [^3H] [D-Ala^2,MePhe^4,Gly^5-ol]enkephalin (DAMGO) that is known to bind specifically to the mu opiate receptor present in rat brain homogenates following literature procedures. [Dooley et al., Science, 266:2019(1994); U.S. Pat. No. 5,763,193.]
Preparation of rat brain membranes and the receptor binding assay were carried out as described in Dooley et al., Life Sci., 52:1509(1993). Each tube in the screening assay contained 0.08 mg of compound mixture per milliliter, 0.5 mL of membrane suspension (0.1 mg of protein), 7 nM ^3H-labeled DAMGO [specific activity 36 Ci/mmol, obtained from the National Institute on Drug Abuse (NIDA) repository through Chiron Mimotopes PeptideSystems (San Diego, Calif.) and […] of peptide mixture in 50 mM Tris-HCl buffer (pH 7.4). The final volume was 0.65 mL. The results of these screenings are shown in the table, below, wherein the “R” groups are as discussed for Example 1. The results are reported as percent inhibition of DAMGO binding.

[2] = molecular target: T2, kappa opiate receptor (Cavia porcellus, UniProt P41144); assay: Inhibition of tritiated U69,593 binding to the kappa opiate receptor in guinea pig brain homogenates; design: Mean: unit not given beside the values; settings: 3 nm tritiated U69,593, guinea pig brain membranes; for % Bound: [3H]U69,593 bound; for % Inhibition: inhibition of [3H]U69,593 binding; for Mean: mean bound radioactivity of [3H]U69,593, 2.5 hours 25° C.; for Minus NSB: mean minus non-specific binding
T2 construct: guinea pig cortices and cerebella were homogenized in 40 mL of Buffer A; from tissue; host or cells: guinea pig cortices and cerebella, crude membrane suspension
Procedure: The above-prepared library of individual compounds was screened for the ability to inhibit the binding of tritiated Compound U69,593 that is known to bind specifically to the kappa opiate receptor present in guinea pig brain homogenates following literature procedures. [Dooley et al., J. Biol. Chem., 273(30) 18848-18856 (1998)]
Briefly, guinea pig cortices and cerebella were homogenized in 40 mL of Buffer A [50 mM Tris-HCl, pH 7.4] at 4° C. Homogenates were centrifuged [Beckman® J2-HC, 35, 300×g] for 10 minutes. The pellets were resuspended in fresh buffer and incubated at 37° C. for 40 minutes. Following incubation, the suspensions were centrifuged as before, the resulting pellets resuspended in 100 volumes of Tris buffer, and the suspensions combined. Membrane suspensions were prepared and used on the same day. Protein content of the crude homogenates was determined by the method of Bradford, Anal. Biochem., 72:248-252 (1976).
Each assay tube contained 0.5 mL of membrane suspension, 3 nm of tritiated Compound U69,593 [(5a,7a,8b)-(−)-N-methyl-N-(7-(1-pyrrolidinyl)-1-oxaspiro(4,5)dec-8-yl)-benzeneacetamide; Lahti et al., European J. Pharmacol., 109:281-284(199-85)] in a total volume of 0.65 mL. Assay tubes were incubated for 2.5 hours a 25° C. The assay was then filtered through GF-B filters on a Tomec™ harvester (Orange, Conn.). The filters were subsequently washed with 6 mL of 50 mM Tris-HC1, pH 7.4 at 4° C. Bound radioactivity was counted on a Wallace™ Beta-plate Liquid Scintillation Counter (Piscataway, N.J.). Unlabeled U50, 488 [(trans-(dl)-3,4-dichloro-N-methyl-N-[2-(1-pyrrolidinyl)cyclohexyl]-benzeneacetamide) methane sulfonate hydrate; Lahti et al., Life Sci., 31:2257-xx(1982) and Von Voightlander et al., J. Pharmacol. Exp. Ther., 224:7 (1983)] was used as a competitive inhibitor to generate a standard curve and determine nonspecific binding. The results of these assays are shown in the table, below, wherein the “R” groups are as discussed for Example 1.

T1 sequence (P33535 whole entry): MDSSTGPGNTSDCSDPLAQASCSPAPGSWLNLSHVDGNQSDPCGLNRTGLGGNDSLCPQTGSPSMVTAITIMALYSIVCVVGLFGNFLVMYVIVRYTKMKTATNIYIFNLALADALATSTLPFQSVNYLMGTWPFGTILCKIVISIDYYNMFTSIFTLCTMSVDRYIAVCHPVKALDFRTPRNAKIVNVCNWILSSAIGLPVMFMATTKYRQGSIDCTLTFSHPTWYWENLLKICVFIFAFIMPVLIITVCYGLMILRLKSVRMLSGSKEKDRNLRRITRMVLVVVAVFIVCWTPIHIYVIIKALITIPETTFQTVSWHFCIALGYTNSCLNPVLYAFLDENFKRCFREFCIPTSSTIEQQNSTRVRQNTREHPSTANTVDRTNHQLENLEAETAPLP
T2 sequence (P41144 whole entry): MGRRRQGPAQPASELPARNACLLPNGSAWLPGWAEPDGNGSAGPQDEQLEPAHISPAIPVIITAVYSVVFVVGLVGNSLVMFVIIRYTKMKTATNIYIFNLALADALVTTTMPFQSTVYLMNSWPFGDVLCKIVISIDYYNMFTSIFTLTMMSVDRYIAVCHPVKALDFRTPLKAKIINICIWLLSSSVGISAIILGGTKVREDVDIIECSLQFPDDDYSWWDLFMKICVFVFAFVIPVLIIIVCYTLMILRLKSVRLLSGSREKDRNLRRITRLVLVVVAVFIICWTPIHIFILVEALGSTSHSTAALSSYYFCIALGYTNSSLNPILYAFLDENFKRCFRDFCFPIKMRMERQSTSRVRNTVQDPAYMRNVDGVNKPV

SMILES | % Bound [1] [%] | Mean [1] | Minus NSB* [1] | % Inhibition [1] [%] | % Bound [2] [%] | % Inhibition [2] [%] | Mean [2] | Minus NSB [2]
CCC(c1ccccc1)c1nc(C(C)C)c2n1C(C(C)C)C(=O)N2 (mixture of isomers) [Pool 68] | 66 | 935.45 | 627.45 | 34 | 106.786 | −6.786 | 2013.3 | 1106.30
CC(C)c1nc(CC(C)c2ccccc2)n2c1NC(=O)C2C(C)C (mixture of isomers) [Pool 69] | 62 | 900.1 | 592.10 | 38 | 67.157 | 32.843 | 1602.75 | 695.75
CCC(C)c1nc(C(C)C)c2n1C(C(C)C)C(=O)N2 (mixture of isomers) [Pool 124] | 62 | 901.85 | 593.85 | 38 | 62.630 | 37.370 | 1555.85 | 648.85
CCCCC(CC)c1nc(C(C)C)c2n1C(C(C)C)C(=O)N2 (mixture of isomers) [Pool 128] | 60 | 881.35 | 573.35 | 40 | 57.563 | 42.437 | 1503.35 | 596.35
CSCCc1nc(C)n2c1NC(=O)C2C(C)C (racemic) [Pool 59] | 59 | 874.75 | 566.75 | 41 | 78.953 | 21.047 | 1724.95 | 817.95
CCCCc1nc(C)n2c1NC(=O)C2C(C)C (racemic) [Pool 60] | 62 | 902.8 | 594.80 | 38 | 81.892 | 18.108 | 1755.4 | 848.40
CCCc1nc(C)n2c1NC(=O)C2C(C)C (racemic) [Pool 61] | 39 | 677.65 | 369.65 | 61 | 50.845 | 49.155 | 1433.75 | 526.75
Cc1nc(CC2CCCCC2)c2n1C(C(C)C)C(=O)N2 (racemic) [Pool 62] | 52 | 805 | 497.00 | 48 | 83.909 | 16.091 | 1776.3 | 869.30
Cc1nc(Cc2ccccc2)c2n1C(C(C)C)C(=O)N2 (racemic) [Pool 63] | 57 | 854.35 | 546.35 | 43 | 84.913 | 15.087 | 1786.7 | 879.70
Cc1nc(Cc2ccc(O)cc2)c2n1C(C(C)C)C(=O)N2 (racemic) [Pool 64] | 42 | 710.9 | 402.90 | 58 | 61.631 | 38.369 | 1545.5 | 638.50
CC(C)c1nc(C2(c3ccccc3)CC2)n2c1NC(=O)C2C(C)C (racemic) [Pool 67] | 55 | 830 | 522.00 | 45 | 84.662 | 15.338 | 1784.1 | 877.10
Cc1cccc(Cc2nc(C(C)C)c3n2C(C(C)C)C(=O)N3)c1 (racemic) [Pool 70] | 68 | 954.15 | 646.15 | 32 | 107.389 | −7.389 | 2019.55 | 1112.55
CC(C)c1nc(Cc2cccc(F)c2)n2c1NC(=O)C2C(C)C (racemic) [Pool 71] | 57 | 853.7 | 545.70 | 43 | 61.245 | 38.755 | 1541.5 | 634.50
CC(C)c1nc(Cc2cccc(Br)c2)n2c1NC(=O)C2C(C)C (racemic) [Pool 72] | 27 | 563 | 255.00 | 73 | 65.748 | 34.252 | 1588.15 | 681.15
CC(C)c1nc(Cc2cccc(C(F)(F)F)c2)n2c1NC(=O)C2C(C)C (racemic) [Pool 73] | 69 | 967.25 | 659.25 | 31 | 78.205 | 21.795 | 1717.2 | 810.20
Cc1ccc(Cc2nc(C(C)C)c3n2C(C(C)C)C(=O)N3)cc1 (racemic) [Pool 74] | 58 | 858.65 | 550.65 | 42 | 48.287 | 51.713 | 1407.25 | 500.25
CC(C)c1nc(Cc2ccc(F)cc2)n2c1NC(=O)C2C(C)C (racemic) [Pool 75] | 47 | 758.2 | 450.20 | 53 | 71.134 | 28.866 | 1643.95 | 736.95
COc1cccc(Cc2nc(C(C)C)c3n2C(C(C)C)C(=O)N3)c1 (racemic) [Pool 76] | 57 | 854 | 546.00 | 43 | 91.902 | 8.098 | 1859.1 | 952.10
CC(C)c1nc(Cc2ccc(Br)cc2)n2c1NC(=O)C2C(C)C (racemic) [Pool 77] | 39 | 682.95 | 374.95 | 61 | 73.658 | 26.342 | 1670.1 | 763.10
COc1ccc(Cc2nc(C(C)C)c3n2C(C(C)C)C(=O)N3)cc1 (racemic) [Pool 78] | 49 | 775.2 | 467.20 | 51 | 87.360 | 12.640 | 1812.05 | 905.05
Cc1nc(CO)c2n1C(C(C)C)C(=O)N2 (centres unmarked) [Pool 39] |  |  |  |  | 78.827 | 21.173 | 1723.65 | 816.65
